Source: patent US20260027119A1, “INHIBITORS OF CALCIUM/CALMODULIN-DEPENDENT PROTEIN KINASE II AND THEIR USES” (priority 2022, published 2026)

Tests used:
CaMKII [1] = test: CaMKII activation in cardiomyocytes stimulated by field pacing (simulated tachycardia); format: cell-based
Description: FIG. 4A, FIG. 4B, and FIG. 4C show compounds that inhibit CaMKII in cardiomyocytes. CaMKII is stimulated in cardiac cells by simulating tachycardia with field pacing. […] When drug concentration is adjusted to match their respective maximum human plasma concentration, four out of the five compounds were able to ameliorate CaMKII (FIG. 4B, FIG. 4C).
(§1) In some embodiments, the presently disclosed subject matter provides a CaMKII activity biosensor, referred to herein as a CaMKII Activity Reporter (CaMKAR), that is tractable for high-throughput screens. Using this sensor, a library of compounds that are safe for human use (i.e., Food and Drug Administration (FDA)-, European Medicines Agency (EMA)-, China Food and Drug Administration (CFDA)-, and Pharmaceuticals and Medical Devices Agency (PMDA)-approved compounds) was screened for previously unidentified CaMKII inhibitors.

[2] = tested on: constitutively active human CaMKIIδ (cardiac isoform); test: High-throughput CaMKAR screen in stable human cell line expressing CaMKAR and constitutively active human CaMKIIδ; format: cell-based
Description: (§2) FIG. 1A, FIG. 1B, FIG. 1C, and FIG. 1D show high-throughput screening to identify CaMKII inhibitors. A stable human cell line that expresses CaMKAR and constitutively active human CaMKIIδ (cardiac isoform) was developed. […] In these cells, the JHDLv3 library, which contains 4,475 compounds that are approved for human use, was screened (FIG. 1B). This primary screen identified 118 candidate compounds, which were subscreened using a CaMKAR in vitro assay (FIG. 1C). Validation of these hits in HEK293 cells and by a third-party laboratory led to five potent inhibitors.
as §1

[3] = tested on: constitutively active CaMKIIδ; test: CaMKII inhibition in HEK293 cells expressing constitutively active CaMKIIδ; format: cell-based
Description: as §2

CaMKII [4] = target: CaMKII (Homo sapiens, UniProt Q13557); test: CaMKAR in vitro assay (subscreen of primary hits); format: biochemical
Sequence of CaMKII (Homo sapiens, UniProt Q13557) (Q13557 whole entry): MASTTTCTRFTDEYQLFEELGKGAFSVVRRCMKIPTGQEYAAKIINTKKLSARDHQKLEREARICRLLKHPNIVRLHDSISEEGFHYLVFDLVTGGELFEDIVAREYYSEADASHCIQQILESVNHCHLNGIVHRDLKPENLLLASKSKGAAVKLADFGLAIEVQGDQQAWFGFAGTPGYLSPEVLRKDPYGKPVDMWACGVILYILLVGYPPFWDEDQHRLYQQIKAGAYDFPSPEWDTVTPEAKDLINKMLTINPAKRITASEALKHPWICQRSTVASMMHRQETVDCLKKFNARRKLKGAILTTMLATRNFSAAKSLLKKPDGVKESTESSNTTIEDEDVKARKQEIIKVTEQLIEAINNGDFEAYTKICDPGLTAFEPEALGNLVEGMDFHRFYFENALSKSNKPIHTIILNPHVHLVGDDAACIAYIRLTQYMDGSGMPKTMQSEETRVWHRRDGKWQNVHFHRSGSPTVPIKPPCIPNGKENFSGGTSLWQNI
Description: as §2

Structure (SMILES) | CaMKII activity in rat cardiac cells (CaMKII [1]) | Inhibition of cardiac CaMKII (CaMKIIδ) in human cells ([2]; human cells) | Potency of CaMKII inhibition relative to tool inhibitor AS100397 [3] | CaMKII inhibition reported by CaMKAR in primary screen cell line ([2]; stable human cell line expressing CaMKAR and constitutively active human CaMKIIδ) | CaMKII inhibition in CaMKAR in vitro assay (CaMKII [4])
CCS(=O)(=O)N1CC(CC#N)(n2cc(-c3ncnc4[nH]ccc34)cn2)C1 [Baricitinib] | prevented CaMKII activity | potently inhibited | more potent | – | –
CN[C@@H]1C[C@H]2O[C@@](C)([C@@H]1OC)n1c3ccccc3c3c4c(c5c6ccccc6n2c5c31)C(=O)NC4 [Staurosporine] | – | – | – | recovered | recovered
